For assay [1], the system named is hepatitis C virus (HCV) replicon. Description: HCV Replicon Cell Assay. The class given is cell-based. How it is done: Cells containing hepatitis C virus (HCV) replicon were maintained in DMEM containing 10% fetal bovine serum (FBS), 0.25 mg per ml of G418, with appropriate supplements (media A).
On day 1, replicon cell monolayer was treated with a trypsin:EDTA mixture, removed, and then media A was diluted into a final concentration of 100,000 cells per ml wit. 10,000 cells in 100 μl were plated into each well of a 96-well tissue culture plate, and cultured overnight in a tissue culture incubator at 37° C.
On day 2, compounds (in 100% DMSO) were serially diluted into DMEM containing 2% FBS, 0.5% DMSO, with appropriate supplements (media B). The final concentration of DMSO was maintained at 0.5% throughout the dilution series.
Media on the replicon cell monolayer was removed, and then media B containing various concentrations of compounds was added. […]
A Taqman real-time RT-PCR quantification assay was set up with two sets of specific primers and probe. […] Total RNA extractants from treated HCV replicon cells was added to the PCR reactions for quantification of both HCV and BVDV RNA in the same PCR well. […] The level of HCV RNA in each well was calculated according to a standard curve run in the same PCR plate. The percentage of inhibition or decrease of HCV RNA level due to compound treatment was calculated using the DMSO or no compound control as 0% of inhibition. […]

The subject of another assay is HCV. Description: REALIZE trial: SVR by IL28B genotype in Peg-IFN/RBV experienced patients. The class given is in vivo, Hepatitis C virus. As to conditions: TVR 750 mg every 8 hours in combination with Peg-IFN/RBV, treatment-experienced patients. Here is the method:
This exploratory sub-analysis evaluated virologic response by IL28B genotype (rs12979860) in the Phase III TVR REALIZE trial. REALIZE is an international, multicentre, randomized, double-blind, placebo-controlled trial in Peg-IFN/RBV experienced patients; including prior relapsers, prior partial responders and prior null responders. Patients were included in this sub-analysis if they had consented to genetic testing.
FIG. 1 is a graphic depiction of the REALIZE study design. Drugs were administered in the following dosages: Peg-IFN alfa-2a=180 μg/week; RBV=1000-1200 mg/day; TVR=750 mg every 8 hours; Pbo=placebo. Overall, 527/662 (80%) patients enrolled in REALIZE consented to genetic testing; Data from T12/PR48 and T12(DS)/PR48 arms were pooled since no differences were observed between TVR arms. Randomization was stratified by viral load and prior response. Stopping rules were applied for TVR (Weeks 4, 6, and 8) and Peg-IFN/RBV (Weeks 12, 24, and 36).

Another assay concerns genotype 1 HCV. The experiment in a line: ADVANCE trial: SVR rates, overall and by IL28B genotype. It counts as in vivo, Hepatitis C virus. As to conditions: for SVR rate: overall (full analysis population). Here is the method:
IL28B genotype was determined in de-identified left-over specimens available from treatment-naïve genotype 1 HCV patients from ADVANCE U.S. sites. Due to the requirements of the de-identification procedure, only samples from Caucasian patients were tested. A series of associated clinical data was retained with the de-identified samples: HCV genotype, prior treatment response, assigned study arm, study completion, RVR, SVR, baseline viral load, EVR, undetectable at EOT.
IL28B genotyping was performed using 100 ng DNA from whole blood or peripheral blood mononuclear cell preparations with TaqMan® PCR, rs12979860 (ABI)

Consider `CCC[C@H](NC(=O)[C@@H]1[C@H]2CCC[C@H]2CN1C(=O)[C@@H](NC(=O)[C@@H](NC(=O)c1cnccn1)C1CCCCC1)C(C)(C)C)C(=O)C(=O)NC1CC1` [VX-950], for which the “activity in the replicon assay” value in assay [1] was “significant activity”. For the same molecule, in the assay with HCV, the “SVR rates versus Peg-IFN/RBV alone” value was “increased SVR rates across all IL28B genotypes”. The SVR rate was 69% in the assay on genotype 1 HCV (T8PR arm) and 75% in the assay on genotype 1 HCV (T12PR arm). Moreover, the SVR came to 90% in the assay with genotype 1 HCV (T12PR, IL28B CC); 71% in the assay on genotype 1 HCV (T12PR, IL28B CT); 73% in the assay on genotype 1 HCV (T12PR, IL28B TT). For the same molecule, the “patients receiving 24 weeks of total therapy” value with genotype 1 HCV (T12PR, IL28B CC) amounted to 78%. Besides, the “RVR and eRVR rates compared to peginterferon alfa-2a/ribavirin alone” value in the assay on genotype 1 HCV (telaprevir-based regimen) is “improved RVR and eRVR rates across all IL28B genotypes”. The “achieved SVR” value with genotype 1 HCV (telaprevir-based regimen, eRVR, IL28B CC) came out at 97%; in the assay with genotype 1 HCV (telaprevir-based regimen, eRVR, IL28B CT), 88%; with genotype 1 HCV (telaprevir-based regimen, eRVR, IL28B TT) it was 85%; in the assay on genotype 1 HCV (telaprevir-based regimen, no eRVR, IL28B CC) it was 63%; with genotype 1 HCV (telaprevir-based regimen, no eRVR, IL28B CT) it was 33%; with genotype 1 HCV (telaprevir-based regimen, no eRVR, IL28B TT) it was 46%. In addition, the “achieved SVR” value is given as 43% with genotype 1 HCV (telaprevir-based regimen, patients who did not have eRVR (48 weeks of therapy)) and 91% in the assay on genotype 1 HCV (telaprevir-based regimen, patients who had eRVR (24 weeks of therapy)).

(Values after patent publication US20130273003A1, “Therapies for Treating Hepatitis C Virus Infection” (priority 2012, published 2013).)
